Drawing on patent US20120190666A1, “Heteroaryl Compounds as PIKK Inhibitors” (Amgen Inc., priority 2009, published 2012), this text covers IC50 for 17 compounds.

In one experiment the target is mTOR (Homo sapiens, UniProt P42345). Briefly: mTOR LanthaScreen (TR-FRET, phosphorylation of 4EBP1). It is filed as biochemical. Particulars: phosphorylation of GFP-4E-BP1, 10 μM ATP, 90 minutes. How it is done: The mTOR LanthaScreen is a TR-FRET assay measuring the phosphorylation of mTOR's substrate 4EBP1. 384 well compound plates were prepared containing 1 μl of compound per well starting at 5 mM and diluted 1:2 across the row, resulting in a 22 well serial dilution. 24 μl of assay buffer (Invitrogen, PV4794) with 2 mM DTT was added to the compound plate in rows 1-24 using the VELOCITY 11™ VPREP™ 384 ST resulting in a DMSO concentration of 4%. The compound plate was mixed and 2.5 μl of serially diluted compound or controls was added to the assay plate (Costar, 3658).
The assay was conducted on the PerkinElmer® FlexDrop PLUS. A 5 μl mix of 800 nM GFP-4E-BP1 (Invitrogen, PV4759) and 20 μM ATP (Amgen) was added to rows 1-24. 2.5 μl of 0.6 μg/ml of mTOR Enzyme (Amgen) was added to rows 1-23. 2.5 μl of assay buffer was added to row 24 for the low control. The final concentration of the compounds was 50 μM serially diluted to 23.84 pM in 1% DMSO. […] The final concentrations in the assay reagents were 400 nM GFP-4E-BP1, 10 μM of ATP and 0.15 μg/ml of mTOR enzyme. The compound, enzyme, and substrate were incubated for 90 minutes. At this point, 10 μl of stop solution was added (20 mM Tris, pH 7.5 (Invitrogen, 15567-027), 0.02% Sodium Azide (Teknova, S0208), 0.01% NP-40 (Roche, 11754599001), 20 mM EDTA (Invitrogen, 15575-038) and 4 nM of Tb-anti-p4E-BP1 (Invitrogen, PV4758)) for a final concentration of 2 nM of Tb-anti-p4E-BP1.
Sixty minutes later the plates were read on the PerkinElmer® EnVision™ 2103 Multilable Reader using the Excitation filter 340 nm and the Emission filters 520 nm and 495 nm.
(In TR-FRET formats the signal depends on donor and acceptor labels being close together.)

Another experiment deals with T1, PI3Kα (Homo sapiens, UniProt P42336).
T1 construct: Full length p110 subunits of PI3K α, β and δ, N-terminally labeled with polyHis tag; polyHis (N); made in house; host or cells: Sf9 insect cells (baculovirus)
T1 sequence (P42336 whole entry): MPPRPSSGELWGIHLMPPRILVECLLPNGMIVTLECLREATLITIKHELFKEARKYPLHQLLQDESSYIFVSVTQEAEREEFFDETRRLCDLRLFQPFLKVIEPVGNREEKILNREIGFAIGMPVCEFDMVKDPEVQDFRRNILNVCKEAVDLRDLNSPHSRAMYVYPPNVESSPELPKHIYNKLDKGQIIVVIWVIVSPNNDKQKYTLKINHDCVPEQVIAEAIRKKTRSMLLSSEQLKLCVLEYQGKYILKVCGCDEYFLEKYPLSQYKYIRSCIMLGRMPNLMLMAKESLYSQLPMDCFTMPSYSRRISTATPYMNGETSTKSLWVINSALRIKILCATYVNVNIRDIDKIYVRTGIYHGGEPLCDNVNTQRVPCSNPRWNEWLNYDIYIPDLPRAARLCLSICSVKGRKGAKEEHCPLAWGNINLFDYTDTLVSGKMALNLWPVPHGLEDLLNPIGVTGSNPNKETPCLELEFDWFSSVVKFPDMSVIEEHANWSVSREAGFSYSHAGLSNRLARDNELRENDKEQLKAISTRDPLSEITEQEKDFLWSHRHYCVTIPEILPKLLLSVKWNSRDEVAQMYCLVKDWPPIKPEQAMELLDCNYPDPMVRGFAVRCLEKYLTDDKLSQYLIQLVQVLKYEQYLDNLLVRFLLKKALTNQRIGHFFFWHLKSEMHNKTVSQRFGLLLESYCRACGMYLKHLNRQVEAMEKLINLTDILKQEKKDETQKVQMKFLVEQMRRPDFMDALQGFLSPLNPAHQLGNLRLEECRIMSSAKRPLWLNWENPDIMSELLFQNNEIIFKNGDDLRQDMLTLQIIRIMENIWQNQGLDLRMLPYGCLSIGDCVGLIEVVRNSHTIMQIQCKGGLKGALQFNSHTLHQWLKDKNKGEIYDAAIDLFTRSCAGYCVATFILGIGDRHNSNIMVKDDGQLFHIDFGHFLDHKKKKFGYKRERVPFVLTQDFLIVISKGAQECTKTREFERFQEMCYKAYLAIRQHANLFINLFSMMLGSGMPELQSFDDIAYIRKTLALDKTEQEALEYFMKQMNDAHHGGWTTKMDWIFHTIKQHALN
T1 sequence (P27986 whole entry partner): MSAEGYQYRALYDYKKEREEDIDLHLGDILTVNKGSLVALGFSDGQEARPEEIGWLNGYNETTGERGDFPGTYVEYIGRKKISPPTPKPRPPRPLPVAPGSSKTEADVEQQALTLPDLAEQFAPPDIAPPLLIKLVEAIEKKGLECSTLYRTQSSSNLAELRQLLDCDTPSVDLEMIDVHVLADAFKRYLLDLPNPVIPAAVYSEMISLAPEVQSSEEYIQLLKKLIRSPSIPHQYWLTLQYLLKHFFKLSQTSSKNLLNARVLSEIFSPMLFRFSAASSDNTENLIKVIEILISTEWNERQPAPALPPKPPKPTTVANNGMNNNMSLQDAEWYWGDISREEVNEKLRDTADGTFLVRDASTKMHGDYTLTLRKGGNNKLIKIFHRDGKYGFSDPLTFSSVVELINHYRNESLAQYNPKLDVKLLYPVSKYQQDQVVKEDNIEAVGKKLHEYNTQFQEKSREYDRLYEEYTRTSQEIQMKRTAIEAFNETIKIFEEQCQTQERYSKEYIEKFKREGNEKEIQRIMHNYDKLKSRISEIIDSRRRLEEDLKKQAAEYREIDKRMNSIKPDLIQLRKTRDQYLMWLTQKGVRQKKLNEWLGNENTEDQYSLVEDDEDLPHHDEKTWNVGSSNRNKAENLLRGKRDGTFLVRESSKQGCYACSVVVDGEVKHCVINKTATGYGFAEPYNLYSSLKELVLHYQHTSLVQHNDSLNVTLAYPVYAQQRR
In words: In vitro PI3K AlphaScreen assay, PI3Kα. It counts as biochemical. The note with it: PI(4,5)P2 substrate, 20 minutes at room temperature, read-out: P13Kalpha IC50 um. The protocol:
The PI3K AlphaScreen® assay (PerkinElmer, Waltham, Mass.) measures the activity of a panel of four phosphoinositide 3-kinases: PI3Kα, PI3KIβ, PI3Kγ, and PI3Kδ. Each of these enzymes phosphorylates the 3′-hydroxyl group on phosphatidylinositiol (4,5)-bisphosphate (PIP2) to produce phosphatidylinositol (3,4,5)-trisphosphate (PIP3). This phosphorylation activity is measured using a GST-tagged PIP3 binding protein (Echelon Biosciences, Salt Lake City, Utah), an anti-GST-tagged Acceptor bead, and streptavidin-Donor bead. The interaction of biotinylated-PIP3 analog (IP4) and the PIP3 binding protein brings both Acceptor and Donor beads together producing, upon excitation of the Donor beads at 680 nm, a singlet oxygen species leading to the luminescent AlphaScreen® signal. When PIP3 is produced via phosphorylation of PIP2 by a PI3K, PIP3 competes with biotinylated-PIP3 analog (IP4) for binding to the PIP3 binding protein. In the absence of this interaction, proximity of the Donor and Acceptor beads is decreased, producing a loss of luminescent signal which is […] to PI3K activity. […] The enzyme reaction buffer is made using sterile water (Baxter, Deerfield, Ill.) and 50 mM Tris HCl pH 7, 14 mM MgCl2, 2 mM sodium cholate, and 100 mM NaCl. 2 mM DTT is added fresh the day of the experiment. The AlphaScreen® reaction buffer is made using sterile water and 10 mM Tris HCl pH 7.5, 150 mM NaCl, 0.10% Tween 20, and 30 mM EDTA. 1 mM DTT is added fresh the day of the experiment. The source plates for this assay are 384-well Greiner clear polypropylene plates containing test compounds at 5 mM and diluted 1:2 over 22 points. Columns 23 and 24 contain only DMSO as these are designated for positive and negative controls. Source plates are replicated into 384-well Optiplates (PerkinElmer, Waltham, Mass.), 0.5 μL/well, to make assay-ready plates. The different PI3K isoforms are each diluted in enzyme reaction buffer to 2× working solutions. PI3Kα is diluted to 1.6 nM, PI3Kβ is diluted to 0.8 nM, PI3Kγ is diluted to 15 nM, and PI3Kδ is diluted to 1.6 nM. Two different 2× substrate solutions are made in enzyme reaction buffer. In one solution, PI(4,5)P2 (Echelon Biosciences, Salt Lake City, Utah) is diluted to 10 μM and ATP is diluted to 20 μM. This solution is used in the assays testing PI3Kα and PI3Kβ. In a second solution, PI(4,5)P2 is diluted to 10 μM and ATP is diluted to 80 μM. This solution is used in the assays testing PI3Kγ and PI3Kδ. The AlphaScreen® reaction solutions are made using beads from the anti-GST AlphaScreen® kit (PerkinElmer, Waltham, Mass.). Two solutions are made in Alphascreen reaction buffer to 4× working concentrations. In one solution, biotinylated-IP4 (Echelon Biosciences, Salt Lake City, Utah) is diluted to 40 nM and streptavadin-Donor Beads are diluted to 80 μg/mL. In the second solution, PIP3-binding protein (Echelon Biosciences, Salt Lake City, Utah) is diluted to 40 nM and anti-GST-Acceptor Beads are diluted to 80 μg/mL. 10 μL/well of enzyme reaction buffer is added to Column 24 of the assay ready plates in place of enzyme. This is done for plates in the PI3Kα, β, and δ assays. Using a 384-well dispensing Multidrop (Titertek, Huntsville, Ala.), 10 μL/well of 2× enzyme (PI3Kα, β, δ) is added to Columns 1-23 of the appropriate assay ready plates (for PI3Kγ 10 μL is added to Columns 1-24). 10 μL/well of the appropriate substrate solution (the solution with 20 μM ATP for PI3Kα and β assays, and the solution with […] for PI3Kγ and δ assays) is then added to Columns 1-24 of the plates. Plates are then incubated at room temperature for 20 minutes. In the dark, 10 μL/well of the Donor Bead solution is added to Columns 1-24 of the plates to quench the enzyme reaction. The plates are incubated at room temperature for 30 minutes. Still in the dark, 10 μL/well of the Acceptor Bead solution is also added to Columns 1-24 of the plates. The plates are then incubated in the dark for 1.5 hours.
For orientation: In Alpha technology, singlet oxygen from a donor bead excites a nearby acceptor bead.

What is called IC50 is the point on the concentration scale where inhibition reaches its midpoint. Consider `CC(=O)Nc1cccc(-c2ccc3nc(Nc4cc[nH]n4)c(-c4nc(C)nc(N)n4)n3c2)c1` [Cpd 114, N-(3-(3-(4-amino-6-methyl-1,3,5-triazin-2-yl)-2-(1H-pyrazol-3-ylamino)imidazo[1,2-a]pyridin-6-yl)phenyl)acetamide], for which the IC50 was 10 nM against mTOR and 100 nM on PI3Kα.
In the case of `COc1ccc(Nc2cc(C)nn2-c2cc(N)nc(C)n2)cn1` [Cpd 24, 6-(5-(6-methoxypyridin-3-ylamino)-3-methyl-1H-pyrazol-1-yl)-2-methylpyrimidin-4-amine], the IC50 was more than 50000 nM at mTOR and 790 nM at PI3Kα.
For `Cc1nc(N)nc(-c2c(Nc3cc[nH]n3)nc3cc(C4=CCN(C(=O)OC(C)(C)C)CC4)ccn23)n1` [Cpd 183, tert-butyl 4-(3-(4-amino-6-methyl-1,3,5-triazin-2-yl)-2-(1H-pyrazol-3-ylamino)imidazo[1,2-a]pyridin-7-yl)-3,6-dihydro-1(2H)-pyridinecarboxylate] the same measures were 460 nM and 50 nM.
Take `Cc1nc(Nc2ccc(N3CCOC(C)C3)nn2)cc(-c2c(Nc3cc[nH]n3)nc3cccnn23)n1` (stereo not shown) [Cpd 140, 3-(2-methyl-6-((6-(2-methyl-4-morpholinyl)-3-pyridazinyl)amino)-4-pyrimidinyl)-N-1H-pyrazol-3-ylimidazo[1,2-b]pyridazin-2-amine]: the IC50 is 110 nM against mTOR and 60 nM on PI3Kα.
For `CCOC(=O)c1cc(Nc2cc[nH]n2)n(-c2cc(N)nc(C)n2)n1` [Cpd 15, ethyl 5-(1H-pyrazol-3-ylamino)-1-(6-amino-2-methylpyrimidin-4-yl)-1H-pyrazole-3-carboxylate], the concentration for half-maximal inhibition (IC50) turned out to be 144 nM at mTOR and 340 nM on PI3Kα.
With `CC(=O)NCc1ccc(-c2ccc3nc(Nc4cc[nH]n4)c(-c4nc(C)nc(N)n4)n3c2)cc1` [Cpd 100, N-(4-(3-(4-amino-6-methyl-1,3,5-triazin-2-yl)-2-(1H-pyrazol-3-ylamino)imidazo[1,2-a]pyridin-6-yl)benzyl)acetamide], the results for the IC50 on mTOR and on PI3Kα were 1 nM and 420 nM, respectively.
The corresponding values for `Cc1nc(NC(=O)N2CCN(C)CC2)cc(-c2c(Nc3cc[nH]n3)nc3cccnn23)n1` [Cpd 77, 4-methyl-N-(2-methyl-6-(2-(1H-pyrazol-3-ylamino)imidazo[1,2-b]pyridazin-3-yl)-4-pyrimidinyl)-1-piperazinecarboxamide] are 2720 nM and 15300 nM.
Consider `Cc1nc(N)nc(-c2c(Nc3cc[nH]n3)nc3ccc(-c4cccc(NC(=O)C5CC5)c4)cn23)n1` [Cpd 115, N-(3-(3-(4-amino-6-methyl-1,3,5-triazin-2-yl)-2-(1H-pyrazol-3-ylamino)imidazo[1,2-a]pyridin-6-yl)phenyl)cyclopropanecarboxamide], for which the half-maximal inhibitory concentration (IC50) at mTOR was 3 nM; at PI3Kα, 40 nM.
For `CNc1cc(-c2c(Nc3cc[nH]n3)nc3ccc(N4CCOCC4)nn23)nc(C)n1` [Cpd 72, 3-(2-methyl-6-(methylamino)-4-pyrimidinyl)-6-(4-morpholinyl)-N-1H-pyrazol-3-ylimidazo[1,2-b]pyridazin-2-amine] the same measures were 40 nM and 110 nM.
As for `Cc1cc(Nc2cc[nH]n2)n(-c2cc(N)nc(C)n2)n1` [Cpd 18, 6-(5-(1H-pyrazol-3-ylamino)-3-methyl-1H-pyrazol-1-yl)-2-methylpyrimidin-4-amine], the values for the IC50 against mTOR and on PI3Kα were 860 nM and 3230 nM, respectively.
For the compound `Cc1nc(N)cc(-c2c(Nc3cccc(N4CCN(C)CC4)c3)nc3cccnn23)n1` [Cpd 151, 3-(6-amino-2-methyl-4-pyrimidinyl)-N-(3-(4-methyl-1-piperazinyl)-phenyl)imidazo[1,2-b]pyridazin-2-amine], the IC50 is 430 nM against mTOR and 9520 nM at PI3Kα.
For `Cc1nc(N)nc(-c2c(Nc3cc[nH]n3)nc3cc(OCCN4CCCC4)ccn23)n1` [Cpd 188] the same measures were 360 nM and 7010 nM.
`COCCOc1ccn2c(-c3nc(C)nc(N)n3)c(Nc3cc[nH]n3)nc2c1` [Cpd 185, 3-(4-amino-6-methyl-1,3,5-triazin-2-yl)-7-(2-methoxyethoxy)-N-1H-pyrazol-3-ylimidazo[1,2-a]pyridin-2-amine]: the IC50 against mTOR worked out at 40 nM; at PI3Kα it was 700 nM.
`COCCOc1cnnc(Nc2cc(-c3c(Nc4ccc(NC(C)=O)cc4)nc4cccnn34)nc(C)n2)c1` [Cpd 53, N-(4-((3-(6-((5-(2-methoxyethoxy)-3-pyridazinyl)amino)-2-methyl-4-pyrimidinyl)imidazo[1,2-b]pyridazin-2-yl)amino)phenyl)acetamide]: the IC50 against mTOR amounted to 1 nM; on PI3Kα it was 20 nM.
For the compound `Cc1nc(-c2c(Nc3cccc(O)c3)nc3ccccn23)c2nc[nH]c2n1` [Cpd 2], the IC50 amounted to 24 nM against mTOR and 20 nM on PI3Kα.
Regarding `Cc1nc(Nc2ccccc2F)cc(-c2c(Nc3cc[nH]n3)nc3cccnn23)n1` [Cpd 31, 3-(6-((2-fluorophenyl)amino)-2-methyl-4-pyrimidinyl)-N-1H-pyrazol-3-ylimidazo[1,2-b]pyridazin-2-amine], the figures for the half-inhibitory concentration (IC50) on mTOR and on PI3Kα were 6180 nM and 2760 nM, respectively.
`Cc1nc(N)nc(-c2c(Nc3cc[nH]n3)nc3ccc(-c4ccc(C(=O)O)cc4C)cn23)n1` [Cpd 177, 4-(3-(4-amino-6-methyl-1,3,5-triazin-2-yl)-2-(1H-pyrazol-3-ylamino)imidazo[1,2-a]pyridin-6-yl)-3-methylbenzoic acid]: the figures for the IC50 on mTOR and at PI3Kα were 1 nM and 80 nM, respectively.
